Experimental data: patent publication US20160115540A1, “PRODRUGS AND DRUGS” (Biogen MA Inc., priority 2013, published 2016)
Counter-ions that a name gives are not always drawn.

Tested on: liver
Assay: Transcriptional profiling on Affymetrix GeneChips, single dose, naïve mice: liver
Type: in vivo, C57BL/6 mice
Conditions: liver
Experimental: Treated mice were sacrificed at 2, 7, or 12 hours. Tissues (liver, spleen, kidney, jejunum, cortex, hippocampus, striatum and whole blood) were collected and analyzed by transcriptional profiling on mouse Affymetrix GeneChips.
Tissues (liver, spleen, kidney, jejunum, cortex, hippocampus, striatum and whole blood) were collected and analyzed by transcriptional profiling on mouse Affymetrix GeneChips.
Animals were exposed to CO2 and whole blood collected via cardiac puncture. Two 100 μl aliquots of whole blood were collected in 1.5 mL microcentrifuge tubes and snap frozen in liquid nitrogen. Peripheral (liver, spleen, kidney and jejunum) and CNS brain (cerebellum, hippocampus, striatum and cortex) tissues were harvested and snap frozen in liquid nitrogen, with special care taken to collect tissues of similar size and from the same location. All samples were stored at −80° C. until RNA extraction was conducted.
For RNA preparation, frozen tissues were placed in 2 mL RNAse-free 96-well blocks with 1.5 mL QIAzol Lysis Reagent (QIAgen) and a 3.2 mm stainless steel bead (BioSpec Products, Bartlesville, Okla.). Tissues were disrupted for four cycles of 45 seconds in a Mini-Beadbeater (Biospec Products). RNA was extracted in chloroform and the aqueous phase was mixed with an equal volume of 70% ethanol. Extracted RNA was applied to RNeasy 96 plates and purified by the spin method according to the manufacturer's protocol (RNeasy 96 Universal Tissue Protocol, QIAgen, Hilden Germany).
Automated sample amplifications and biotin labelings were carried out using the NuGEN Ovation RNA Amplification system V2 (Cat #3100), Ovation WB reagent (Cat #1300) and Encore Biotin module (Cat #4200) (NuGEN Technologies, Inc, San Carlos, Calif.) according to manufacturer's recommendations using an Arrayplex automated liquid handler (Beckman Coulter, Indianapolis, Ind.). Two micrograms of biotin labeled sscDNA probe were hybridized to Affymetrix GeneChip Affymetrix HT_MG-430_PM plate arrays with modified conditions as described in Allaire et al. Washing and staining of the hybridized arrays were completed as described in the GeneChip Expression analysis technical manual for HT plate arrays using the Genechip® Array Station (Affymetrix, Santa Clara, Calif.) with modifications as described in Allaire et al. The processed GeneChip® plate arrays were scanned using GeneTitan scanner (Affymetrix, Santa Clara, Calif.).
Affymetrix scans were subject to quality control (QC) measures. These tests included a visual inspection of the distribution of raw signal intensities and an assessment of RNA degradation, relative log expression (RLE), and normalized unsealed standard error (NUSE). All sample scans that passed these QC metrics were included in the analysis.
All CEL files were subjected to GC-content-based Robust Multi-array Average (GCRMA) normalization (version 2.20.0) (Irizarry R A, et al. Nucleic Acids Res 2003; 31:e15; Li C, et al. Genome Biol 2001; 2:[…]0032). Expression levels were log (base 2) transformed.
All calculations and analyses were carried out using R (version 2.11.1) and Bioconductor computational tools (Gentleman R. Springer Science+Business Media 2005).

[1] = 100 mg/kg, 7 hr, vs matched vehicle controls
[2] = 100 mg/kg, 12 hr, vs matched vehicle controls

COC(=O)/C=C/C(=O)O [MMF, monomethyl fumarate]
Murine Liver DEGs: Srxn1 (1419942_PM_at) (100 mg/kg, 2 hr, vs matched vehicle controls): 1.68 | Murine Liver DEGs: Akr1b8 (1448894_PM_at) [1]: 1.75 | Murine Liver DEGs: Bmp6 (1450759_PM_at) [1]: 1.65 | Murine Liver DEGs: Cda (1427357_PM_at) [1]: 1.92 | Murine Liver DEGs: Clec4n (1419627_PM_s_at) [1]: 2.40 | Murine Liver DEGs: Erc2 (1434582_PM_at) [1]: −1.95 | Murine Liver DEGs: Fzd8 (1445815_PM_at) [1]: −1.81 | Murine Liver DEGs: G6pdx (1448354_PM_at) [1]: 1.61 | Murine Liver DEGs: Irak3 (1435040_PM_at) [1]: 1.53 | Murine Liver DEGs: Marco (1449498_PM_at) [1]: 2.44 | Murine Liver DEGs: Nqo1 (1423627_PM_at) [1]: 2.20 | Murine Liver DEGs: Pir (1429001_PM_at) [1]: 1.50 | Murine Liver DEGs: Srxn1 (1419942_PM_at) [1]: 1.52 | Murine Liver DEGs: Ablim1 (1453103_PM_at) [2]: −1.51 | Murine Liver DEGs: Atp6v0d2 (1444176_PM_at) [2]: 1.84 | Murine Liver DEGs: Car3 (1460256_PM_at) [2]: −1.57 | Murine Liver DEGs: Ccnf (1443807_PM_x_at) [2]: 1.57 | Murine Liver DEGs: Clmn (1439117_PM_at) [2]: −1.54 | Murine Liver DEGs: Ctla2a (1448471_PM_a_at) [2]: 1.63 | Murine Liver DEGs: Dnajc12 (1417441_PM_at) [2]: 2.53 | Murine Liver DEGs: Fndc3b (1433833_PM_at) [2]: 1.66 | Murine Liver DEGs: Gadd45b (1450971_PM_at) [2]: 1.50 | Murine Liver DEGs: Gm3579 (1431214_PM_at) [2]: 2.74 | Murine Liver DEGs: Hyou1 (1423290_PM_at) [2]: 1.82 | Murine Liver DEGs: Lrrc59 (1416235_PM_at) [2]: 1.65 | Murine Liver DEGs: Nme6 (1448574_PM_at) [2]: 1.57 | Murine Liver DEGs: Ppapdc1b (1428154_PM_s_at) [2]: 1.87 | Murine Liver DEGs: Ppm1k (1441988_PM_at) [2]: −1.56 | Murine Liver DEGs: Prtn3 (1419669_PM_at) [2]: 4.46 | Abcc1 (probe set 1452233_PM_at) differential expression (2 hr): 1.86 | Akr1b8 (probe set 1448894_PM_at) differential expression (2 hr): 2.27 | Ampd3 (probe set 1422573_PM_at) differential expression (2 hr): 1.70 | Caprin1 (probe set 1448348_PM_at) differential expression (2 hr): −1.56 | Clec4d (probe set 1420804_PM_s_at) differential expression (2 hr): 2.05 | Cmah (probe set 1447019_PM_at) differential expression (2 hr): −1.55 | Csnk2a1 (probe set 1419038_PM_a_at) differential expression (2 hr): −1.62 | Figf (probe set 1438953_PM_at) differential expression (2 hr): 2.25 | Fxr1 (probe set 1452247_PM_at) differential expression (2 hr): −1.53 | Gclc (probe set 1424296_PM_at) differential expression (2 hr): 1.72 | Hmox1 (probe set 1448239_PM_at) differential expression (2 hr): 2.41 | Meis2 (probe set 1440091_PM_at) differential expression (2 hr): −1.67 | Mkln1 (probe set 1416734_PM_at) differential expression (2 hr): −1.69 | Pgd (probe set 1436771_PM_x_at) differential expression (2 hr): 1.61 | Ppfibp2 (probe set 1417801_PM_a_at) differential expression (2 hr): 2.55 | Prpf38b (probe set 1455016_PM_at) differential expression (2 hr): −1.53 | Ptprb (probe set 1453908_PM_at) differential expression (2 hr): −1.76 | Ptprg (probe set 1456070_PM_at) differential expression (2 hr): −1.85 | Srxn1 (probe set 1419942_PM_at) differential expression (2 hr): 1.68 | Akr1b8 (probe set 1448894_PM_at) differential expression (7 hr): 1.75 | Bmp6 (probe set 1450759_PM_at) differential expression (7 hr): 1.65 | Cda (probe set 1427357_PM_at) differential expression (7 hr): 1.92 | Clec4n (probe set 1419627_PM_s_at) differential expression (7 hr): 2.40 | Erc2 (probe set 1434582_PM_at) differential expression (7 hr): −1.95 | Fzd8 (probe set 1445815_PM_at) differential expression (7 hr): −1.81 | G6pdx (probe set 1448354_PM_at) differential expression (7 hr): 1.61 | Irak3 (probe set 1435040_PM_at) differential expression (7 hr): 1.53 | Marco (probe set 1449498_PM_at) differential expression (7 hr): 2.44 | Nqo1 (probe set 1423627_PM_at) differential expression (7 hr): 2.20 | Pir (probe set 1429001_PM_at) differential expression (7 hr): 1.50 | Srxn1 (probe set 1419942_PM_at) differential expression (7 hr): 1.52 | Ablim1 (probe set 1453103_PM_at) differential expression (12 hr): −1.51 | Atp6v0d2 (probe set 1444176_PM_at) differential expression (12 hr): 1.84 | Car3 (probe set 1460256_PM_at) differential expression (12 hr): −1.57 | Ccnf (probe set 1443807_PM_x_at) differential expression (12 hr): 1.57 | Clmn (probe set 1439117_PM_at) differential expression (12 hr): −1.54 | Ctla2a (probe set 1448471_PM_a_at) differential expression (12 hr): 1.63 | Dnajc12 (probe set 1417441_PM_at) differential expression (12 hr): 2.53 | Fndc3b (probe set 1433833_PM_at) differential expression (12 hr): 1.66 | Gadd45b (probe set 1450971_PM_at) differential expression (12 hr): 1.50 | Gm3579 (probe set 1431214_PM_at) differential expression (12 hr): 2.74 | Hyou1 (probe set 1423290_PM_at) differential expression (12 hr): 1.82 | Lrrc59 (probe set 1416235_PM_at) differential expression (12 hr): 1.65 | Nme6 (probe set 1448574_PM_at) differential expression (12 hr): 1.57 | Ppapdc1b (probe set 1428154_PM_s_at) differential expression (12 hr): 1.87 | Ppm1k (probe set 1441988_PM_at) differential expression (12 hr): −1.56 | Prtn3 (probe set 1419669_PM_at) differential expression (12 hr): 4.46
